“Also recorded” adds a separate entry of the source.
Experiments:
Type in all cases: cell-based, human
[1] = test system: U87H-GFP; assay: Flow cytometry (FACS) of H-GFP fusion gene expression under the hCMV promoter in reporter cell line; details: 48 h; for increase in the fluorescence intensity mean value: compared to untreated cells
Description: (§1) U87H-GFP is a cell line derived from the human glioblastoma cell line U87 after stable transfection with plasmid pCMV-hygroEGFP. This plasmid which is integrated into the genomic DNA is derived from PCR-Script™ (Stratagene) and carries a fusion gene downstream of the human CMV promoter. This fusion gene contains the gene for resistance to hygromycin, which is linked to the gene coding for the enhanced green fluorescent protein (EGFP). The resulting gene (called H-GFP) codes for a protein which imparts resistance to hygromycin B and which can be readily detected by fluorescence microscopy and flow cytometry analysis. […] U87H-GFP and the parent line U87 were cultured in Dulbecco's Modified Eagle's Medium, (D-MEM, low glucose, Gibco, BRL) supplemented with 10% fetal calf serum (Seromed), 100 units/ml penicillin, 100 μg/ml streptomycin and 1 μg/ml amphotericine B (Gibco, BRL) at 37° C. in a humidified atmosphere containing 5% CO2. For the U87H-GFP cell line, the culture medium was supplemented with 600 units/ml hygromycin B (Calbiochem). U87H-GFP and the parent cells were seeded at 1-2×10^5 cells/well on 6-well plates (Nuclon, NUNC), using D-MEM without hygromycin B, and incubated for adhesion for 24 h. This was followed by adding 5-azacytidine and trichostatin A (Sigma Chemicals, Co.) at different final concentrations (2.5-5-10-20-40 μM for Aza; from 10 nM to 3 μM for TSA) to the culture medium. After two days of treatment, fluorescence microscopy and flow cytometry analyses were carried out. In order to prepare samples for FACS analysis, cells were incubated in the 6-well plates in 0.05% trypsin containing 0.5 mM EDTA (Gibco, BRL) at 37° C. for 5 min, followed by stopping the trypsin action by adding two volumes of culture medium. The cells were harvested, centrifuged at 500×g for 5 min and resuspended in 1 ml complete D-MEM. In order to stain dead cells, propidium iodide (final concentration 10 μg/ml) was added to each sample. The cells were then again centrifuged and resuspended in phosphate-buffered saline (PBS 1×, pH 7.4), before analyzing them by means of FACS. The cells were analyzed using FACScalibur (Becton Dickinson) with the flow rate corresponding to approximately 500 events/s. In order to exactly define a cell population and to exclude cell debris and aggregates, a region of interest was established on the dot plot (FSC compared to SSC). In the two-parameter histogram of propidium iodide, dead cells were distinguished by comparison to forward angle light scatter (FSC). The fluorescence intensity of individual cells was measured on a logarithmic scale, each logarithmic histogram representing 2×10^4 counted events. The fluorescence intensity mean value (MFI) was the parameter used for defining the increase in the fluorescence intensity in each cell population.

[2] = test system: U87H-GFP; assay: Fluorescence microscopy of H-GFP gene expression; details: for increase in the green fluorescent signal: 48 h; for upregulation of the CMV promoter, visible due to increased GFP fluorescence: very low concentrations, within two days, after removal of hygromycin
Method: U87H-GFP and the parent cells were seeded at 1-2×10^5 cells/well on 6-well plates (Nuclon, NUNC), using D-MEM without hygromycin B, and incubated for adhesion for 24 h. This was followed by adding 5-azacytidine and trichostatin A (Sigma Chemicals, Co.) at different final concentrations (2.5-5-10-20-40 μM for Aza; from 10 nM to 3 μM for TSA) to the culture medium. After two days of treatment, fluorescence microscopy and flow cytometry analyses were carried out. Approximately 10^5 cells of each cell line were seeded on polylysine-coated coverslips, treated with different concentrations of Aza and TSA for 48 h and then fixed in 5% formaldehyde at room temperature for 30 min. This was followed by analyzing all samples under a fluorescence microscope (Axiophot, Zeiss, Germany) and recording various images which correspond to the different final concentrations of each medicament (FIG. 1).

[3] = test system: U87H-GFP; assay: Cell cycle analysis (BrdU incorporation / 7-AAD, FACS), reporter line; details: 5 μM Aza, 2 days
Method: (§2) U87H-GFP and the parent cells were seeded at 5×10^3/cm^2 in T25 flasks (Nuclon, NUNC), using D-MEM without hygromycin B for both cell lines. Half of the flasks were treated with 5 μM Aza and the other, as a negative control, without any medicaments. After 42 h, BrdU was added to the medium (final concentration of 10 μM), and 6 h later the cells were prepared for cell cycle analysis. The cells were harvested, centrifuged at 500×g for 5 min and fixed in chilled 70% strength ethanol for 20 min. BrdU incorporation into the DNA was detected by using 3×10^5 cells of each Aza-treated or untreated cell line. PBS 1×/0.5% BSA (washing buffer) was added, and the cells were centrifuged at 500×g for 5 min. The pellet was then resuspended in a denaturing solution (HCl 1M, PBS 0.5×BSA 0.5%) and washed again after 20 min. This was followed by re-suspending the pellet in 0.1M sodium borate (Na2B4O7), pH 8.5, for 2 min and then adding the washing buffer. After this passage, the total volume of each sample was divided into two halves (one half being used for the isotype antibody, the other one for the BrdU antibody), centrifuged at 500×g for 5 min, resuspended in the buffer containing the anti-isotype or anti-BrdU monoclonal antibodies (Becton Dickinson) and, after 30 min, washed with PBS 1×/0.5% BSA. The supernatant was discarded and the pellet resuspended in RNAse A (final concentration 100 μg/ml); the DNA was stained by also adding to the solution 7-AAD (Via-PROBE, Becton Dickinson). After 1 h (in the dark), the samples were washed and then resuspended in PBS 1×/0.5% BSA. DNA fluorescence of the nuclei (approximately 10^4 nuclei were analyzed for each cell population) was measured by means of the abovementioned FACScan flow cytometer (Becton Dickinson) and the percentages of cells in the G0 and G1, S, G2 and M phases of the cell cycle were analyzed on the basis of the FACScan software programs.

[4] = test system: U87; assay: Cell cycle analysis (BrdU incorporation / 7-AAD, FACS), parent line; details: U87, 5 μM Aza, 2 days
Method: as §2

[5] = test system: tumor cells U87; assay: Change in cell morphology (differentiation); details: high concentrations
[6] = test system: U87H-GFP; assay: Flow cytometry (FACS) of H-GFP fusion gene expression under the hCMV promoter in reporter cell line
[7] = test system: U87; assay: Flow cytometry (FACS) of background fluorescence in parent cell line (negative control line); details: 48 h, parent cells
Description: as §1, with “In the two-parameter histogram of propidium iodide, dead cells were distinguished by comparison to forward angle light scatter (FSC).” left out

[8] = test system: U87H-GFP; assay: Toxicity, number of living cells observed by FACS; details: final TSA concentrations of more than 3 μM (data not shown)
Method: In order to prepare samples for FACS analysis, cells were incubated in the 6-well plates in 0.05% trypsin containing 0.5 mM EDTA (Gibco, BRL) at 37° C. for 5 min, followed by stopping the trypsin action by adding two volumes of culture medium. The cells were harvested, centrifuged at 500×g for 5 min and resuspended in 1 ml complete D-MEM. In order to stain dead cells, propidium iodide (final concentration 10 μg/ml) was added to each sample. The cells were then again centrifuged and resuspended in phosphate-buffered saline (PBS 1×, pH 7.4), before analyzing them by means of FACS.
In order to exactly define a cell population and to exclude cell debris and aggregates, a region of interest was established on the dot plot (FSC compared to SSC). In the two-parameter histogram of propidium iodide, dead cells were distinguished by comparison to forward angle light scatter (FSC). The fluorescence intensity of individual cells was measured on a logarithmic scale, each logarithmic histogram representing 2×10^4 counted events. The fluorescence intensity mean value (MFI) was the parameter used for defining the increase in the fluorescence intensity in each cell population.

[9] = U87H-GFP, listed as Azacytidine

## Nc1ncn([C@@H]2O[C@H](CO)[C@@H](O)[C@H]2O)c(=O)n1 [Aza, 5′-azacytidine]
[1]; 2.5 μM Aza
  shift of FACS fluorescence profile toward higher fluorescence intensity: already clearly visible
  increase in the fluorescence intensity mean value: two-fold
[1]; 20 μM Aza
  shift of FACS fluorescence profile toward higher fluorescence intensity: clearly visible; also recorded: well defined
  increase in the fluorescence intensity mean value: three-fold
[2]; 20 μM Aza
  increase in the green fluorescent signal: clearly defined
[2]
  upregulation of the CMV promoter, visible due to increased GFP fluorescence: very strong upregulation
[3]; U87 H-GFP
  Percentages of cells in G1-G0: 61.53 ± 4.06 %
  Percentages of cells in G2: 8.77 ± 1.44%
  Percentages of cells in M: 16.26 ± 2.83 %
  Percentages of cells in S: 13.3 ± 3.26 %
  change in percentage of cells in G2 versus untreated: increased number
  effect on different cell cycle phases (apart from G2): no significant differences
[3]; [9]
  change in percentage of cells in G2 versus untreated: small increase
  effect on different cell cycle phases (apart from G2): no significant effect
[4]
  Percentages of cells in G1-G0: 62.61 ± 0.47%
  Percentages of cells in G2: 13.1 ± 2.36%
  Percentages of cells in M: 10.58 ± 2.85%
  Percentages of cells in S: 13.54 ± 1.25%
  changes in the cell cycle phases: significant changes
[5]
  change in the morphology of the cells: a change in the morphology of the cells was observed
[6]; 0.5 μM Aza, 48 h
  shift of FACS fluorescence profile toward higher fluorescence intensity: completely superpose those of the untreated cells
[6]; 1 μM Aza alone, 48 h, compared to untreated cells
  increase in the fluorescence intensity mean value: approximately two-fold; also recorded: about a two-fold
[6]; Aza retained for 144 h, identical final concentrations, versus 48 h experiment (data not shown)
  shift in the fluorescence intensity average: same shift
[7]; 20 μM Aza
  shift of FACS fluorescence profile: small shift
[7]; highest concentration used (40 μM Aza)
  increase in the fluorescence intensity mean value: approximately two-fold; also recorded: less than twice

## CC(/C=C/C(=O)NO)=C\[C@@H](C)C(=O)c1ccc(N(C)C)cc1 [TSA, trichostatin A]
[1]; 100 nM TSA
  shift of FACS fluorescence profile / increase in H-GFP gene expression: completely superpose those of the untreated cells; also recorded: does not induce in any way an increase
[1]; 200 nM TSA alone
  increase in the fluorescence intensity mean value: approximately two-fold; also recorded: about a two-fold
[1]; 500 nM TSA
  increase in the fluorescence intensity: slight but significant increase
[1]; 1 μM TSA
  shift of FACS fluorescence profile toward higher fluorescence intensity: clearly visible; also recorded: attains a saturation threshold
  increase in the fluorescence intensity mean value: three-fold
[1]; 3 μM TSA
  increase in the fluorescence intensity mean value: four-fold
[1]; TSA concentrations lower than 500 nM
  increase in the fluorescence intensity: not at the lower concentrations used
[8]
  toxicity, number of living cells: highly toxic
[2]; 1 μM TSA
  increase in the green fluorescent signal: clearly defined
[2]
  upregulation of the CMV promoter, visible due to increased GFP fluorescence: very strong upregulation
[5]
  change in the morphology of the cells: a change in the morphology of the cells was observed
[7]; 1 μM TSA
  shift of FACS fluorescence profile: small shift
[7]; 3 μM TSA
  increase in fluorescence: two-fold

Source: patent publication US8568972B2, “Substances causing differentiation” (Medicyte GmbH, priority 2000, dated 2013)
